From EP0089139A2, “Antibiotics, their preparation and use” (BEECHAM GROUP PLC, priority 1982, dated 1983)
Values after ≈ are worked out from the molar mass of the structure shown. Read-outs that look alike come from different tables or passages of the source.

Experiments:
Assay in all cases: standard MIC test
Format in all cases: cell-based
E.coli JT39 = settings: Escherichia coli
Source text: (§1) In a standard MIC test the following data were obtained.

[1] = test system: Salmonella typhimurium CT10; settings: Salmonella enterica
Source text: as §1

[2] = test system: Staphylococcus aureus Russell
Source text: as §1

Escherichia coli 0111 = test system: Escherichia coli 0111
Source text: as §1

| MIC (E.coli JT39; E.coli JT39, read-out: M.I.C) [µg/mL] | MIC ([1]; Salmonella typhimurium CT10, read-out: MIC) [µg/mL] | MIC ([2]; Staphylococcus aureus Russell, read-out: MIC) [µg/mL] | Compound | MIC (E.coli JT39; JT39) [µg/mL] | MIC ([1]; TYPHIMURIUM) [µg/mL] | MIC ([2]; Staphylococcus aureus) [µg/mL] | MIC (Escherichia coli 0111) [µg/mL] |
| --- | --- | --- | --- | --- | --- | --- | --- |
| 1.6 (≈ 4.98 µM) | 6.2 (≈ 19.3 µM) | 0.4 (≈ 1.24 µM) | C[C@@H](O)[C@H]1C(=O)N2C(C(=O)O)=C(Sc3ncccn3)[C@H](C)[C@H]12 (racemic) [Example 40] | – | – | – | – |
| – | – | – | C[C@@H]1C(Sc2ncccn2)=C(C(=O)[O-])N2C(=O)[C@H]([C@@H](C)O)[C@@H]12.[Na+] [Example 30, Sodium (4S,5S,6S)-4-methyl-6-[(1R)-1-hydroxyethyl]-3-(pyrimidin-2-ylthio)-7-oxo-1-azabicyclo [3.2.0] hept-2-ene-2-carboxylate] | 0.8 | 3.1 | 0.8 | – |
| – | – | – | C[C@H](O)[C@@H]1C(=O)N2C(C(=O)[O-])=C(Sc3ncccn3)[C@H](C)[C@@H]12.[Na+] (racemic) [Example 16, Sodium (4RS,5RS,6RS)-4-methyl-6-[(1SR)-1-hydroxyethyl]-3-(pyrimidin-2-ylthio)-7-oxo-1-azabicyclo[3.2.0]hept-2-ene-2-carboxylate] | – | 1.6 | 0.4 | 1.6 |
